Patent publication US20100009970A1, “COMPOSITIONS AND METHODS FOR TREATMENT OF VIRAL DISEASES” (Combinatorx (Singapore) Pte. Ltd., priority 2008, published 2010)
Where two headings read alike, the source gives them in different places.

Key:
[1] = system: Huh7 cells expressing a subgenomic RNA replicon of Con1 (genotype 1b) sequence origin; details: for IC50: read-out: IC50 (uM) [SG]
in vitro = details: human
[2] = system: Huh7 cells expressing a subgenomic RNA replicon of Con1 (genotype 1b) sequence origin; assay: microbe, parasite or virus in culture; details: Hepatitis C virus
[3] = GETYPE1B, Huh-7, 72 h, read-out: Max Effect @CC30 (inhibition)
[4] = Huh-7, 48 h, read-out: Max Effect
[5] = Huh-7, read-out: IC50 (uM) [SG]
[6] = Huh-7, read-out: Max Effect@CC30 (inhibition)
[7] = Huh-7, read-out: Max effect @CC30 (%)

CN[C@H]1CC[C@@H](c2ccc(Cl)c(Cl)c2)c2ccc(S(N)(=O)=O)cc21 [Sertraline Sulfonamide NH2, (5S,8S)-5-(3,4-dichlorophenyl)-8-(methylamino)-5,6,7,8-tetrahydronaphthalene-2-sulfonamide]
Synergy Score [1]: 0.49 | TI (CC50/IC50) [1]: >2.226 | CC50 (in vitro; CC50): > 13.4 µM | CC50 (in vitro; CC50 (uM)): 9.99 ± 4.4 µM | CC50 (in vitro; CC50 (uM) [SG]): 9.99 ± 4.4 µM | Emax [2, 3]: 63.5 ± 6.4% | IC50 ([2]; Huh-7, 48 h): 6.02 µM | Emax [2, 4]: 91% | IC50 ([2]; Huh-7, 72 h): 3.65 ± 2.3 µM | IC50 [2, 5]: 3.65 ± 2.3 µM | Emax [2, 6]: 63.5 ± 6.4%

CN[C@H]1CC[C@@H](c2ccc(Cl)c(Cl)c2)c2ccc(CS(C)(=O)=O)cc21 [(1S,4S)-4-(3,4-dichlorophenyl)-N-methyl-7-(methylsulfonylmethyl)-1,2,3,4-tetrahydronaphthalen-1-amine]
IC50 [1]: 2.33 µM | CC50 (Huh7 parental cells; human): 14.2 µM | CC50 (in vitro; CC50 (uM)): 13 µM | CC50 (in vitro; CC50 (uM) [SG]): 13 µM | IC50 ([2]; Huh-7): 1.68 µM | IC90 ([2]; Huh-7): 7.89 µM | IC50 [2, 5]: 1.68 µM | Emax [2, 6]: 84.8% | Emax [2, 7]: 84.8% | IC50 ([2]; Huh-7, read-out: SA IC50 (uM)): 1.68 µM

CNC1CCC(c2cccs2)c2ccccc21 (stereo not drawn) [Sertraline B-ring 2-Thiophene]
Max Effect@CC30 (inhibition) [1]: 42% | IC50 [1]: 52.3 µM | CC50 (Huh7 parental cells): 88.5 µM

CSc1ccc(Oc2ccc(Br)cc2CN(C)C)cc1C [Compound 9, (5-bromo-2-(3-methyl-4-(methylthio)phenoxy)phenyl)-N,N-dimethylmethanamine]
CC50 (Huh7 parental cells; human): > 50 µM | CC50 (in vitro; CC50 (uM) [SG]): 54.8 µM | IC50 [2, 5]: 14.5 µM | Emax [2, 6]: 79%

NC1CCC(c2ccc(Cl)c(Cl)c2)c2ccccc21 (racemic)
Synergy Score [1]: 1.51 | TI (CC50/IC50) [1]: 1.252 | CC50 (in vitro; CC50): 7.84 µM | IC50 ([2]; Huh-7, 48 h): 6.26 µM | Emax [2, 4]: 99%

CN[C@H]1CC[C@@H](c2ccc(Cl)c(Cl)c2)c2ccc(C#N)cc21 [Sertraline Nitrile, (5S,8S)-5-(3,4-dichlorophenyl)-8-(methylamino)-5,6,7,8-tetrahydronaphthalene-2-carbonitrile]
Synergy Score [1]: 0.52 | TI (CC50/IC50) [1]: >1.796 | CC50 (in vitro; CC50): > 13.4 µM | CC50 (in vitro; CC50 (uM)): 14.8 µM | CC50 (in vitro; CC50 (uM) [SG]): 14.8 µM | Emax [2, 3]: 87% | IC50 ([2]; Huh-7, 48 h): 7.46 µM | Emax [2, 4]: 89% | IC50 ([2]; Huh-7, 72 h): 4.81 µM | IC50 [2, 5]: 4.81 µM | Emax [2, 6]: 87%

CNC1CCC(c2ccccc2OC)c2ccccc21 (stereo not drawn) [Sertraline B-Ring Ortho-Methoxy]
Max Effect [1]: 24% | Synergy Score [1]: 0.81 | CC50 (Huh7 parental cells): > 22.3 µM

CN(C)[C@H]1CC[C@@H](c2ccc(Cl)c(Cl)c2)c2ccc(C(N)=O)cc21 [(5S,8S)-5-(3,4-dichlorophenyl)-8-(dimethylamino)-5,6,7,8-tetrahydronaphthalene-2-carboxamide]
IC90 [1]: 8.73 µM | IC50 [1]: 3.18 µM | CC50 (Huh7 parental cells; human): 23.7 µM | CC50 (in vitro; CC50 (uM)): 20.7 µM | CC50 (in vitro; CC50 (uM) [SG]): 21.7 ± 1.44 µM | IC50 ([2]; Huh-7): 2.96 µM | IC90 ([2]; Huh-7): 8.77 ± 0.05 µM | IC50 [2, 5]: 2.62 ± 0.48 µM | Emax ([2]; Huh-7, read-out: Max Effect @CC30 (inhibition)): 94.8% | Emax [2, 6]: 94.3 ± 0.7%

CNC1CCC(c2cccc(OC)c2)c2ccccc21 (stereo not drawn) [Sertraline B-ring m-Methoxy]
Max Effect@CC30 (inhibition) [1]: 27.70% | CC50 (Huh7 parental cells): > 50 µM

CNCc1cc(S(N)(=O)=O)ccc1Oc1ccc(SC)c(C)c1 [Compound 48, 4-(3-methyl-4-(methylthio)phenoxy)-3-((methylamino)methyl)benzenesulfonamide]
IC90 [1]: 8.26 ± 2.49 µM | IC50 [1]: 2.26 ± 0.11 µM | CC50 (Huh7 parental cells; human): > 50 µM | CC50 (in vitro; CC50 (uM)): 39.6 µM | CC50 (in vitro; CC50 (uM) [SG]): 39.6 µM | IC50 ([2]; Huh-7): 2.33 µM | IC90 ([2]; Huh-7): 10 µM | IC50 [2, 5]: 2.33 µM | Emax [2, 6]: 95.5% | Emax [2, 7]: 95.5% | IC50 ([2]; Huh-7, read-out: SA IC50 (uM)): 2.33 µM

CN[C@H]1CC[C@H](c2ccc(Cl)c(Cl)c2)c2ccccc21.Cl [(1S,4R) Sertraline Hydrochloride]
Max Effect@CC30 (inhibition) [1]: 50 ± 17.4% | CC50 (Huh7 parental cells): 7.51 ± 0.8 µM
